Here are results for one molecule from US11022604B2, “Dock derived compound against laminin receptor (37 LR) and uses thereof” (Purdue Research Foundation, priority 2017, dated 2021).

The experiment relates to PC-3 cells. Description: Label-free quantitative proteomics and Ingenuity Pathway Analysis. Format: cell-based, human. To be noted: PC-3, 10 μM, 72 hours. On the procedure:
FIG. 7. Volcano Plot of Differentially regulated proteins in response to C3 treatment. PC-3 cells were treated with DMSO or 10 μM C3 for 72 hours and proteins were quantified using label free quantitative mass spectrometry. Proteins were graphed by fold change (Difference) and significance (−Log p) using a false discovery rate of 0.05 and an S0 of 0.1.
FIG. 8 Ingenuity pathway analysis of proteomic data from C3 treatment of PC-3 cells.
Wound Healing Assay. PC-3 cells were seeded in 6 well plates at 3×10^5 cells per well in complete media until the cells reached confluency. Three horizontal and three vertical scratches were made in the confluent monolayers using a standard 200 μL pipette tip and cellular debris were removed by washing with 1×DPBS three times. 1×RPMI-1640 supplemented with C3 or DMSO was added and cells were incubated for 48 hours as described previously. […] Images were uploaded and analyzed for scratch geometry using the tscratch program (96). First, global thresholding was performed, then individual images were manually inspected for single image threshold adjustment and scratch geometries were quantified. […] The samples were analyzed using the Dionex UltiMate 3000 RSLC Nano System coupled to the Q Exactive™ HF Hybrid Quadrupole-Orbitrap MS (Thermo Scientific). […]

Turning to `O=C(c1cc(F)cc2c1OCOC2)N1CCN(C2c3ccccc3-c3ccccc32)CC1` [Compound C3, [4-(9h-fluoren-9-yl)piperazino](6-fluoro-4h-1,3-benzodioxin-8-yl)methanone], the ICT1 protein level was 1.9 FC.
